Key:
[1] = Pharmacokinetic properties after IV and PO administration; format: in vivo
[2] = tested on: GL261 glioblastoma cells injected intra-cranially; experiment: GL261 murine model of glioblastoma (intra-cranial), survival; format: in vivo, C57BL/6 mice; settings: orally once per day at 1 mg/kg for 45 days
Method: (§1) The anti-tumor activity of Compound 121, as a single agent, was studied in the GL261 murine model of human glioblastoma. Murine GL261 glioblastoma cells were injected intra-cranially into syngeneic, immune-competent hosts (C57BL/6). In order for oral therapeutics to be effective, it is required that the therapeutic be able to cross the blood-brain barrier in order to achieve sufficient levels in the brain to exert an anti-tumor effect. Survival was the major endpoint for the study. The mice either succumbed to the tumor or were euthanized based on severity of tumor-dependent morbidity. Mice that achieved long-term survival (>80 days) were re-challenged with a sub-cutaneous injection of GL261 cells to assess the development of a durable immune response to GL261. Mice that underwent the re-challenge phase were not treated with Compound 121.
GL261 cells (1×10^5 cells) were implanted into the brain of a C57BL/6 host using stereotactice injection. Compound 121 was dosed orally once per day at 1 mg/kg (N=10) for 45 days beginning 3 days post-tumor cell implantation. Compound Y was dosed orally once per day at 5 mg/kg (N=10) for 45 days beginning 3 days post-tumor implantation. A vehicle was administered to a control group of mice (N=10) per the same schedule.
Mice were monitored for signs of tumor dependent morbidity, including head tilt, hunching, ataxia, and limb weakness. Mice were euthanized when cumulative signs of high tumor burden were evident.

[3] = tested on: GL261 cells, sub-cutaneous; experiment: Re-challenge of long-term survivors with sub-cutaneous GL261 cells; format: in vivo, C57BL/6 mice; settings: long term survival (LTS) mice after Compound 121 oral therapy, not treated in re-challenge phase
Method: as §1
Re-challenge phase: Mice surviving past 80 days were injected with GL261 cell subcutaneously on Day 93. A control group (naïve C57BL/6 mice, N=5) were also injected with GL261 cells subcutaneously. Tumor volumes were calculated from bidimensional caliper measurements every 3 to 4 days. Further, all mice were administered oral doses of a Bifidobacterium mixture on three separate occasions. The objective of the administration of Bifidobacterium was to transiently modify the intestinal microbiome as a means to influence the immune response to GL261. […]

U87 cells = experiment: MTT cell growth inhibition (GI50), U87; format: cell-based, human; settings: 3 days
Method: The drug concentration required to block net cell growth by 50% relative to a control sample is measured as the GI50. The GI50s for several of the compounds of the application were assayed as described.
MTT assay: U87 and GL261 cells were seeded in 96-well plate (6×10^3 cells in 100 μl of DMEM+10% FBS media per well) and incubated overnight at 37° C. with 5% CO2. All test compounds were diluted (10 point 2-fold serial dilution) in a separate 96-well plate to yield 10× of final concentrations (0.5-256 nM). A volume of 11 μl of 10× dilutions was added to appropriate wells (n=3). To value (reflecting the starting number of cells upon drug treatment) was determined by following steps as described below. After 3 days incubation at 37° C. with 5% CO2, 10 μl of MTT solution (5 mg/ml in PBS) was added to each well and plates were incubated at 37° C. for 3 h to allow MTT to form formazan crystals by reacting with metabolically active cells. 100 μl of 20% SDS was added to each well and plates were incubated overnight at 37° C. with 5% CO2. Afterward, OD570 was measured using microplate reader. The cell growth percentage of control was calculated according to percentage of control=(T−T0)/(C−T0)×100% or OD value of the test well exposure to test drug—OD value at time zero/(OD of the control well without drug treatment−OD value at time zero)×100%. Growth inhibition curves and GI50 were determined using GraphPad Prism 5 software.

[4] = tested on: U87-luc human glioblastoma subcutaneous xenograft; experiment: U87-luc human glioblastoma subcutaneous xenograft tumor model; format: in vivo, athymic nude mice
Source text: The anti-tumor activity of Compound 121, as a single agent, was studied in a U87-luc human glioblastoma subcutaneous xenograft tumor model. Significant endpoints were used to assess the treatment effects on subcutaneous tumor growth, as determined by tumor growth inhibition.
Human glioblastoma U87 cells (1×10^6 cells) were implanted into the right flank of athymic nude mice via subcutaneous injection. Dosing was initiated when the average tumor size reached 90-100 mm^3, which was designated as Day 1.
Compound 121 was dosed at 5 mg/kg once per day through Days 1-7 and dosed 2.5 mg/kg once per day through Days 15-21. A control group of mice (N=7) was administered a vehicle per the same schedule. Tumor volume was determined every 2 to 3 days via bidimensional caliper measurements. Body weight and general observations were recorded.
The mice were euthanized once the tumor reached 2000 mm^3 in volume.
Tumor growth inhibition (TGI) was calculated with the following formula:
TGI=(1−(mean volume of treated tumors)/(mean volume of control tumors))×100.

[5] = in vivo, IV Administration (5 mg/kg)
[6] = Day 12, orally dosed 5 mg/kg once per day Days 1-7

SMILES: Cc1cc(N2CCOC[C@@H]2C)ccc1-c1ccc(CC(=O)NCc2ccc(F)cc2)nc1 [Compound 121]
- AUCIV (dose-normalized) ([1]; IV Administration (5 mg/kg)): 575 kg·ng·h/mL/mg
- t0.5 ([1]; IV Administration (5 mg/kg)): 0.959 h
- F (%) = 100 × AUCpo/AUCIV ([1]; PO 20 mg/kg vs IV 5 mg/kg): 34.8%
- AUCPO (dose-normalized) ([1]; PO Administration (20 mg/kg)): 199 kg·ng·h/mL/mg
- C0 [1, 5]: 2850 ng/mL
- clearance [1, 5]: 29 mL/min/kg
- Vd ([1]; in vivo, IV Administration (5 mg/kg), read-out: Vss): 2.24 L/kg
- Cmax ([1]; in vivo, PO Administration (20 mg/kg)): 2170 ng/mL
- Survival compared to vehicle control [2]: significanly extended survival
- Survival beyond 80 days (long term survival) ([2]; N=10): 2 of the 10
- Tumor growth after sub-cutaneous re-challenge with GL261 cells [3]: Tumors failed to grow in both LTS mice
- GI50 (U87 cells): 5.2 nM
- Tumor growth (tumor volumes in individual mice over time) ([4]; 5 mg/kg once per day Days 1-7, 2.5 mg/kg once per day Days 15-21): repressed tumor growth
- Mean tumor volume compared to the control group ([4]; Day 12, P<0.05): significantly reduced
- % TGI (tumor growth inhibition) [4, 6]: 76.8%
- Mean Tumor Volume ± SEM [4, 6]: 442.9 ± 67.2 mm3
- Time to terminal sacrifice (based on tumor volume) compared to control ([4]; P<0.05, 5 mg/kg Days 1-7, 2.5 mg/kg Days 15-21): significantly extended
